Here are results for 1 molecule from patent publication US11484032B2, “Compositions for inhibition of insect sensing” (Vanderbilt University, priority 2011, dated 2022).

The target in one experiment is T1, AgOrco+AgOR65 (Anopheles gambiae, UniProt Q7QCC7).
T1 construct: expressed in transfected cells
T1 sequence (Q7QCC7 1-478): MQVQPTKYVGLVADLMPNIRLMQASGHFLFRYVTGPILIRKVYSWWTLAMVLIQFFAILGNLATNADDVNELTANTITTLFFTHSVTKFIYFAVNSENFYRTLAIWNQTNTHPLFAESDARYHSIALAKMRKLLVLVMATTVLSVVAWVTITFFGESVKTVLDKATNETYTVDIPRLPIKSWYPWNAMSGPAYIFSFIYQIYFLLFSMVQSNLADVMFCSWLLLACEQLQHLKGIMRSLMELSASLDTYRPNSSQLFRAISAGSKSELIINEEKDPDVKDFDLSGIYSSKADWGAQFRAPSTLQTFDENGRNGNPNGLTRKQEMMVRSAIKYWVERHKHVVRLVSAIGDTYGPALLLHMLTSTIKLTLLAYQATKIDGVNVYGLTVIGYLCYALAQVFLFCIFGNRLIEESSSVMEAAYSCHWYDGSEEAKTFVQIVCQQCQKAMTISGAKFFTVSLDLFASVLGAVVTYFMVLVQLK
The experiment in a line: Ca2+ imaging, HEK cells expressing AgOrco+AgOR65. Format: cell-based. Particulars: heteromeric OR channels AgOrco+AgOR65; read-out: EC50. An excerpt:
For transient transfections, ORs were cloned into pCl (Promega) and transfected into Flp-In™ T-REx™293 cell lines (Invitrogen) with Fu GENE6 (Roche). For the creation of stable cell lines, a cell culture expression vector capable of expressing Orco in conjunction with a conventional OR, pcDNA5/FRT/TO (Invitrogen) was modified to create two individual expression cassettes each under the control of a separate CMV/Tet02 promoter and a BGH poly-adenylation signal. Cells (as above) were transfected with the modified pcDNA5 plasmid along with POG44 (a Flp recombinase expression plasmid) to facilitate site-specific recombination. Stable cell lines were selected using Hygromycin B (Invitrogen). Cells were maintained in DMEM (Invitrogen) supplemented with 10% Tetracycline-free FBS (HyClone) and 15 ng/ml Blasticidin. For fluorometric Ca2+ measurements, stable lines expressing ORs of interest were seeded at 20,000 cells/well in black wall, poly-lysine coated 384-well cell culture plates (Greiner) and treated with […] tetracycline (Sigma) overnight to induce OR expression. Cells were dye-loaded with 1.8 uM Fluo-4 AM (Molecular Probes), 2.5 mM Probenecid (Molecular Probes) in assay buffer (20 mM HEPES, IX HBSS) for 45 minutes at 37° C. in 5% CO2 prior to each assay. Ca^2+ mobilization was assayed in an FDSS6000 (Hamamatsu). Baseline readings were taken for 20 s before automated addition of compound previously diluted in DMSO and assay buffer. Ratios were described as Maximum/Minimum response and each response was normalized to the maximum responder.
For VUAA0, a single methyl from the para position of the aniline ring (compound VUAA0, FIG. 44) in the VUAA1 structure was removed. […] In VUAA0.5, unsaturation was introduced at the para position of the aniline ring (VUAA0.5, FIG. 44). […] In VUAA2, the ethyl group of the aniline ring in VUAA1 was replaced with an isopropyl group (VUAA2, FIG. 44).

Another experiment concerns the target T2, AgORco (Anopheles gambiae, UniProt Q7QCC7).
T2 construct: expressed in transfected cells
T2 sequence (Q7QCC7 1-478): T1 sequence (Q7QCC7 1-478)
Description: Single-channel recording, outside-out patches from AgORco-expressing HEK293 cells. Format: biochemical. The protocol: Currents from OR-expressing HEK293 cells were amplified with an Axopatch 200b Amplifier (Axon Instruments) and digitized through a Digidata 1322A (Axon Instruments). Electrophysiological data was recorded and analyzed using pCLAMP 10 (Axon Instruments). Electrodes were fabricated from quartz tubing (Sutter Instruments) and pulled to 4-6 MiΩ for whole cell recording. Electrodes were filled with internal solution (120 mM KCl, 30 mM D-glucose, 10 mM HEPES, 2 mM MgCl2, 1.1 mM EGTA, and 0.1 CaCl2) (pH 7.35, 280 mOsm). External (bath) solution contained 130 mM NaCl, 34 mM D-glucose, 10 mM HEPES, 1.5 mM CaCl2), 1.3 mM KH2PO4, and 0.5 MgSO4 (pH 7.35, 300 mOsm). Compounds were diluted in external solution and locally perfused to the recording cell using Perfusion Pencil (Automate Scientific) and controlled by a ValveLink 8.2 controller (Automate Scientific). Whole cell recordings were sampled at 10 kHz and filtered at 5 kHz. Outside-out patches were obtained using 10-15MΩ electrodes pulled from standard glass capillaries (World Precision Instruments) and fire-polished with an MF-830 micro forge (Narishige). Single channel recordings were sampled at 20 kHz. Recordings were reduced to 1 kHz and low-pass filtered at 500 Hz for display and analysis using QuB (SUNY at Buffalo). […]

Experiment [1] has as its system An. gambiae early 4th instar larvae. Description: Larval mosquito movement assay (Daniovision-Ethovision). Format: in vivo, Anopheles gambiae. As for the experimental part:
Next, the agonist activity of the VUAA compound class was tested to establish the involvement of AgORs in mediating larval ortho and klinokinesis in response to a series of semiochemicals using larval-stage An. gambiae mosquitoes. Mosquito larvae are aquatic, thus compounds can be delivered to individual early 4th instar larvae regardless of volatility. The assay currently utilizes 6-well plates and the Daniovision-Ethovision platform (Noldus Inc.) to simultaneously record and analyze 6 larvae, thereby providing modest rates of throughput and a high degree of reproducibility. In these assays, larval movements are automatically quantified over 5-minute period and control larvae consistently move the same number of times in the presence or absence of 0.1% DMSO (p=0.80, n=31) (FIGS. 42-43). Furthermore, the effects of the widely-used synthetic insect repellent N, N-diethyl-meta-toluamide (DEET) was tested and DEET was also observed to increase larval movements at and above a threshold concentration of 5×10^−4M (p=0.013, n=27) (FIGS. 42-43).

A word on the EC50: it is the concentration that produces a half-maximal response. `CCc1ccc(NC(=O)CSc2nnc(-c3cccnc3)n2CC)cc1` [VUAA1, 2-((4-ethyl-5-(pyridin-3-yl)-4H-1,2,4-triazol-3-yl)thio)-N-(4-ethylphenyl)acetamide]: the EC50 on AgOrco+AgOR65 worked out at 37 µM. The “average unitary current of AgORco” value on AgORco (VUAA1-evoked, mean±st. dev.) is 1.3±0.3 pA. Moreover, the “channel opening probability P0” value on AgORco (during 5 s application of −4.0 log M VUAA1, patch held at −60 mV) is on record as 0.38. Further, the “larval movements at higher concentration” value in experiment [1] (5×10^−5M) is reported as “larval movements were observed to decrease”. In addition, the “larval response in AgOrco siRNA-treated larvae” value in experiment [1] (AgOrco siRNAs injected 48 h before, vs buffer-injected control) was “no longer responsive”. For the same molecule, the “increase over the response threshold of DEET” value in experiment [1] (in vivo) is reported as 5 orders of magnitude. In addition, the “threshold concentration for increased larval movement” value in experiment [1] (movements over 5-minute period) was 5 nM.
